One may read the amount remaining as what is left of the initial amount, in per cent. Higher therefore signals greater stability.

≈ marks a conversion by molar mass, not a printed value. Where two headings read alike, the source gives them in different places. Residues, ends and D or L forms follow the SMILES beside them.

Here are results for four compounds from paper PMC9589885, “A designed antimicrobial peptide with potential ability against methicillin resistant Staphylococcus aureus” (Frontiers in Microbiology, 2022).

Series [1] has as its system Staphylococcus aureus (ATCC6538). In words: microbe, parasite or virus in culture. The class given is cell-based. The source says:
(§1) The standard strain of Staphylococcus aureus (S. aureus, ATCC6538), Escherichia coli (E. coli, ATCC25922), Pseudomonas aeruginosa (P. aeruginosa, ATCC9027), Acinetobacter baumannii (A. baumannii, ATCC19606) and Candida albicans (C. albicans, ATCC/0331) used in this experiment was purchased from the microbial strain collection center of Guangdong Province. The methicillin resistant strain of Staphylococcus aureus (MRSA, SAZ) and clinically isolated antibiotic-resistance strains (SA115775 and SA15192) were clinically isolated from the First Affiliated Hospital of Kunming Medical University. The strains of C. albicans were cultured in 1/3 YM Medium (HB0297-1) + 2/3 RPMI 1640 medium (10-040-CVR, Corning), and other bacterial strains were cultured in Luria-Bertani (LB: 2 g tryptone, 1 g yeast extract, 2 g sodium chloride and 200 ml deionized water) broth.
(§2) Briefly, bacteria strains were diluted and adjusted to the concentration of 2 × 10^5 CFU/ml using RPMI 1640 medium. Samples were prepared as a stock solution in saline, and then diluted to a series of concentrations. 100 μl bacterial suspension and 100 μl samples at the indicated concentration were put together in 96-well plates and incubated at 37°C for 16 h. Finally, an absorbance at 600 nm was measured by a microplate reader to estimate bacterial growth. The MIC was defined as the lowest concentration where the bacterial growth could not be detected completely.

Series [2] concerns methicillin-resistant Staphylococcus aureus (MRSA-Z). In words: microbe, parasite or virus in culture. The conditions noted are these: 16 h. The class given is cell-based.
Text: as §1, §2

Series [3] concerns Staphylococcus aureus (SA15192). In words: microbe, parasite or virus in culture. The class given is cell-based. The conditions noted are these: 16 h.
Text: as §1, §2

Series [4] deals with Staphylococcus aureus (SA115775). Briefly: microbe, parasite or virus in culture. The conditions noted are these: 16 h. It is filed as cell-based.
Text: as §1, §2

For series [5], the system named is S. aureus (ATCC6538). In words: Staphylococcus aureus intraperitoneal infection model. The class given is in vivo, C57BL/6 mice. The conditions noted are these: CFU 4 h after administration, n = 6. On the procedure:
S. aureus (ATCC6538) and methicillin resistant strain of Staphylococcus aureus (MRSA, SAZ) were resuspended by saline with the concentration of 1 × 10^9 CFU/ml. […] 2 h later, samples were intraperitoneally injected with the concentration indicated. After 4 h of administration, mice were sacrificed, blood was collected via retro-orbital bleeding and lungs were harvested and homogenized in 1 ml of saline with a hand tissue grinder. 10-fold serial dilutions of the homogenates and blood were made in pyrogen-free NaCl and equal volumes were plated on LB agar plates and incubated at 37°C. CFU were counted after 24 h.
After 4 h of administration, mice were sacrificed, blood (A,C) and lung (B,D) were collected for the measurement of bacterial loads. Data represent mean ± SD values of six independent experiments. *p < 0.05, **p < 0.01, ***p < 0.001.

For series [6], the system named is S. aureus (ATCC6538). In words: Bacterial killing kinetic assay. The class given is cell-based, Staphylococcus aureus. The conditions noted are these: 1 ×, 5 × or 10 × MIC; RPMI 1640 with 10% FBS, 37°C; not completely killed in the time given. On the procedure: (§3) The bacterial killing kinetic assay was performed according to the previous method with minor modifications ([Wei et al., 2015]). S. aureus (ATCC6538) and methicillin resistant strain of Staphylococcus aureus (MRSA, SAZ) were washed three times with saline and then resuspended with RPMI 1640 medium containing 10% FBS at the concentration of 2 × 10^5 CFU/ml. […] Ten microliter aliquots were extracted at each time point and diluted with fresh broth for 100 times, 100 μl of the dilution was seeded on agar plates. After incubation at 37°C for 24 h, the viable colonies were determined.
(§4) Ten microliter aliquots were extracted at each time point and diluted with fresh broth for 100 times, 100 μl of the dilution was seeded on agar plates. After incubation at 37°C for 24 h, the viable colonies were determined for the killing kinetic analysis. Data represent mean ± SD values of three independent experiments. *p < 0.05, **p < 0.01, ***p < 0.001.

Series [7] deals with methicillin-resistant S. aureus (MRSA-Z). In words: Bacterial killing kinetic assay. It is filed as cell-based, Staphylococcus aureus. The conditions noted are these: 1 ×, 5 × and 10 × MIC; RPMI 1640 with 10% FBS, 37°C. On the procedure: as §3, §4
The subject of series [8] is human mature red blood cells. The conditions noted are these: 1.32–169.01 μM, 30 min, 37°C, absorbance 540 nm, 3 independent experiments. On the procedure:
(§5) Hemolysis of testing sample was calculated as the percentage of Triton X-100-induced hemolysis.
as §5

The test system of series [9] is Escherichia coli (ATCC25922). The class given is cell-based. The conditions noted are these: E. coli ATCC25922; broth dilution, 37°C, 16 h.
Text: as §1, §2
On the technique in general: Broth dilution looks for growth in wells or tubes with falling amounts of substance.

For series [10], the system named is Candida albicans (ATCC/0331). It is filed as cell-based. The conditions noted are these: C. albicans ATCC/0331; broth dilution, 37°C, 16 h.
Text: as §1, §2

Series [11] relates to S. aureus (ATCC6538, MRSA-Z, SA15192, SA115775). The conditions noted are these: 4.23 mM in 100% human plasma, 0-10 h, 37°C, disk diffusion, zone of inhibition, two independent experiments. On the procedure: Residual antibacterial activity for each incubation time point was evaluated by disk diffusion assay. In brief, bacteria were seeded on nutrient agar plates, 6 mm paper disks were placed on top and 10 μl aliquots of the plasma-peptide mixture was added to the paper disks. After 24 h incubation, the inhibitory zones against S. aureus (ATCC6538, MRSA-Z, SA15192, SA115775) were measured and recorded.
Data represent mean ± SD of two independent experiments.

The next series has as its system C57BL/6 mice. In words: In vivo acute toxicity assay. Also on record: species or system mouse. The conditions noted are these: single dose 20 mg/kg and 40 mg/kg, intravenous (tail vein), male C57BL/6, n = 10, recorded 12-72 h. On the procedure:
Male C57BL/6 mice aged 6–8 weeks were randomly divided into 2 groups with 10 mice in each group. […] Then the death of mice was recorded at 12 h, 24 h, 36 h, 48 h, 60 h and 72 h, respectively.
[picture] Supplementary Figure 1. […] Male C57BL/6 mice aged 6–8 weeks were randomly divided into 2 groups (n = 10). […] Then the death of mice was recorded at 12 h, 24 h, 36 h, 48 h, 60 h and 72 h respectively.

The next series is described as follows: in vitro. The conditions noted are these: human, human plasma.
The next series concerns HEK293T cells. The conditions noted are these: up to 169.01 μM, 24 h, CCK8, absorbance 450 nm; 3 independent experiments.
The subject of series [12] is Acinetobacter baumannii (ATCC19606). Briefly: MIC, broth dilution. The conditions noted are these: A. baumannii ATCC19606, 37°C, 16 h. The class given is cell-based.
Text: as §1
(§6) Briefly, bacteria strains were diluted and adjusted to the concentration of 2 × 10^5 CFU/ml using RPMI 1640 medium. Samples were prepared as a stock solution in saline, and then diluted to a series of concentrations. […] Finally, an absorbance at 600 nm was measured by a microplate reader to estimate bacterial growth. The MIC was defined as the lowest concentration where the bacterial growth could not be detected completely.

Series [13] deals with Pseudomonas aeruginosa (ATCC9027). In words: MIC, broth dilution. The class given is cell-based. The conditions noted are these: P. aeruginosa ATCC9027, 37°C, 16 h.
Text: as §1, §6

Procedure for in vitro: After incubation for 0, 2, 4, 6, 8 and 10 h at 37°C, an aliquot of 10 μl sample was taken for protein precipitation with an equal volume of 4% H3PO4, the mixture was vortex-mixed for 2 min and then centrifuged at 13000 rpm for 15 min at 4°C. 3 μl of supernatant was analyzed using reverse-phase high performance liquid chromatography (RP-HPLC), and the remaining peptide was calculated through the integrated peak area.

As to `CN[C@H](CC(C)C)C(=O)N[C@H]1C(=O)N[C@@H](CC(N)=O)C(=O)N[C@H]2C(=O)N[C@H]3C(=O)N[C@H](C(=O)N[C@H](C(=O)O)c4cc(O)cc(O)c4-c4cc3ccc4O)[C@H](O)c3ccc(c(Cl)c3)Oc3cc2cc(c3O[C@@H]2O[C@H](CO)[C@@H](O)[C@H](O)[C@H]2O[C@H]2C[C@](C)(N)[C@H](O)[C@H](C)O2)Oc2ccc(cc2Cl)[C@H]1O` [Vancomycin, vancomycin], the MIC came to 1.08 µM (≈ 1.57 µg/mL) in [1] (Staphylococcus aureus, ATCC6538, 16 h); 0.54 µM (≈ 0.783 µg/mL) in [2] (Staphylococcus aureus, MRSA); 2.16 µM (≈ 3.13 µg/mL) in [3] (Staphylococcus aureus); 1.08 µM (≈ 1.57 µg/mL) in series [4] (Staphylococcus aureus). The “Dissemination of S. aureus (ATCC6538) from the peritoneal cavity to the blood” value in the series with S. aureus (ATCC6538) [5] (GW18 2, 4, 8 mg/kg or vancomycin 2, 4 mg/kg ip 2 h after infection (2 × 10^8 CFU/mouse ip)) is listed as “significantly suppressed”. Further, in the series with S. aureus (ATCC6538) [5] (GW18 2, 4, 8 mg/kg or vancomycin 2, 4 mg/kg ip 2 h after infection), the “Dissemination of S. aureus (ATCC6538) from the peritoneal cavity to the lung” value is listed as “significantly suppressed”. Moreover, the “Time to completely kill the S. aureus” value with S. aureus (ATCC6538) [6] is on record as greater than 240 min. In addition, the “Time to completely kill the MRSA-Z” value in series [7] is 240 min.
For `COc1cccc(OC)c1C(=O)N[C@@H]1C(=O)N2[C@@H]1SC(C)(C)[C@@H]2C(=O)O` [Methicillin, methicillin], the MIC in [1] (Staphylococcus aureus, S. aureus ATCC6538, broth dilution, RPMI 1640, 2 × 10^5 CFU/ml, 37°C, 16 h, absorbance 600 nm, read-out: MIC) is 1.94 µM (≈ 0.738 µg/mL); in [2] (Staphylococcus aureus, MRSA-Z, broth dilution, RPMI 1640, 2 × 10^5 CFU/ml, 37°C, absorbance 600 nm, read-out: MIC), greater than 124 µM; in [3] (Staphylococcus aureus, clinical isolate SA15192, broth dilution, RPMI 1640, 2 × 10^5 CFU/ml, 37°C, read-out: MIC), 15.5 µM (≈ 5.91 µg/mL); in [4] (Staphylococcus aureus, clinical isolate SA115775, broth dilution, RPMI 1640, 2 × 10^5 CFU/ml, 37°C, read-out: MIC), 62.1 µM (≈ 23.6 µg/mL).
In the case of `C[C@H](NC(=O)CNC(=O)[C@H](Cc1c[nH]c2ccccc12)NC(=O)CN)C(=O)N[C@@H](CCCCN)C(=O)N[C@@H](CCCNC(=N)N)C(=O)N[C@@H](Cc1c[nH]c2ccccc12)C(=O)NCC(=O)N[C@@H](CCCCN)C(=O)N[C@@H](CCCNC(=N)N)C(=O)NCC(=O)N[C@@H](Cc1c[nH]c2ccccc12)C(=O)N[C@@H](CCCCN)C(=O)N[C@@H](Cc1c[nH]c2ccccc12)C(=O)N[C@@H](CCCCN)C(=O)N[C@@H](CCCNC(=N)N)C(=O)N[C@@H](Cc1c[nH]cn1)C(=O)N[C@@H](Cc1c[nH]c2ccccc12)C(N)=O` [GW18] (H-GWGAKRWGKRGWKWKRHW-NH2), the Hemolytic activity result in series [8] was “no obvious hemolytic activity”. In addition, the MIC in [9] was 5.28 µM (≈ 12.5 µg/mL); in [10], greater than 20 µM; in series [1] (S. aureus ATCC6538, broth dilution, RPMI 1640, 2 × 10^5 CFU/ml, 37°C, 16 h, absorbance 600 nm, read-out: MIC), 1.32 µM (≈ 3.12 µg/mL); in series [2] (MRSA-Z, broth dilution, RPMI 1640, 2 × 10^5 CFU/ml, 37°C, absorbance 600 nm, read-out: MIC) it was 1.32 µM (≈ 3.12 µg/mL); in series [3] (clinical isolate SA15192, broth dilution, RPMI 1640, 2 × 10^5 CFU/ml, 37°C, read-out: MIC) it was 1.32 µM (≈ 3.12 µg/mL); in series [4] (clinical isolate SA115775, broth dilution, RPMI 1640, 2 × 10^5 CFU/ml, 37°C, read-out: MIC) it was 1.32 µM (≈ 3.12 µg/mL). Moreover, the “Antibacterial activity against S. aureus after incubation in human plasma” value in series [11] is recorded as “did not significantly affect”. Besides, the “Acute toxicity (death of mice)” value in the series on C57BL/6 mice is “no acute toxicity”. Further, the amount remaining at 10 h, 4.23 μM in “in vitro” was determined as 57.6%. Besides, the “Cytotoxicity on HEK293T” value in the series with HEK293T cells is recorded as “no obvious cytotoxicity”.
For the compound colistin, the MIC in series [9], in series [12] and in series [13] was 0.56 µM throughout.
